Assays:
CLR/RAMP2 receptor [1] = biological target: T1, CLR/RAMP2 receptor (Homo sapiens, UniProt O60895+Q16602); assay: CLR/RAMP2 arrestin receptor-activation assay (agonist mode); type: cell-based; settings: for CLR/RAMP2 Max Activity % of positive control: agonist mode, positive control ADM; for EC50: CHO-K1 cells stably expressing CLR/RAMP2, arrestin assay;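 on all read-outs here: agonist dose-response in recombinant cell lines stably expressing each receptor complex, duplicate wells over 10 threefold dilutions from a top concentration of 1.0 µM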
T1 sequence (Q16602 23-461): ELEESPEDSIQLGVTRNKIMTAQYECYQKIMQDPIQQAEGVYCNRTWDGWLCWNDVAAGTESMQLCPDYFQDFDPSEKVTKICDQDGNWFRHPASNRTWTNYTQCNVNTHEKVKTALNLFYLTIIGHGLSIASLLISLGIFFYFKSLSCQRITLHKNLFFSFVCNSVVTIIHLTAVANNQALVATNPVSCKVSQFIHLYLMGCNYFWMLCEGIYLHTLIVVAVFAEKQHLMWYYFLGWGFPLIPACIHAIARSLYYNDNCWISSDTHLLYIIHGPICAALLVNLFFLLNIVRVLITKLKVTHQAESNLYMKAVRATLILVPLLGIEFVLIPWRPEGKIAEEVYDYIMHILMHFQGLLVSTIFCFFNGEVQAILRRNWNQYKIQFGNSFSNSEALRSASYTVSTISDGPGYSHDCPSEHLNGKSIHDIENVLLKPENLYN
T1 sequence (O60895 43-175): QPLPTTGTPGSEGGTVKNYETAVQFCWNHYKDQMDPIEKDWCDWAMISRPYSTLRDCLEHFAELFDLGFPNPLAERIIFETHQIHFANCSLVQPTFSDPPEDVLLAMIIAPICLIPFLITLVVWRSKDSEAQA
Procedure: (§1) Using a receptor activation assay, the dose-dependent stimulatory response of peptide agonists on a CLR/RAMP1 receptor, a CLR/RAMP2, or a CLR/RAMP3 receptor complex was determined. A cell line carrying the recombinant CLR/RAMP1, CLR/RAMP2, or a CLR/RAMP3 receptor was employed in the assay. Peptide agonist activities were tested, in duplicate, at 10 different concentrations, starting with 1.0 μM and serially diluted 3-fold, in DMSO. […] The CLR/RAMP1 CAMP, CLR/RAMP2 arrestin, and CLR/RAMP3 CAMP assays (DiscoveRx, Fremont, Calif.) were used.
(§2) The pharmacology of superagonistic activity of synthetic analogs was studied in cells that stably express CLR/RAMP1 (1321N1 cells), CLR/RAMP2 (CHO-K1 cells), or CLR/RAMP3 (CHO-K1 cells) receptors.
(§3) For the Arrestin assays, PathHunter cell lines (Discoverx Inc.) were expanded from freezer stocks, and seeded in a total volume of 20 μL into white walled, 384-well microplates and incubated at 37 C for the appropriate time prior to testing. For agonist determination, cells were incubated with sample to induce response. […] The microplates were read following signal generation with a PerkinElmer Envision™ instrument for chemiluminescent signal detection.
(§4) The compound activity was analyzed using a CBIS data analysis suite (ChemInnovation, CA). For agonist mode assays, percentage activity was calculated using the following formula:
(§5) % Activity=100%×(mean RLU of test sample−mean RLU of vehicle control)/(mean MAX control ligand−mean RLU of vehicle control).

[2] = biological target: T2, type 1 angiotensin II receptor AGTR1 (Homo sapiens, UniProt P30556); assay: AGTR1 calcium flux assay, antagonist mode; type: cell-based
T2 sequence (P30556 1-359): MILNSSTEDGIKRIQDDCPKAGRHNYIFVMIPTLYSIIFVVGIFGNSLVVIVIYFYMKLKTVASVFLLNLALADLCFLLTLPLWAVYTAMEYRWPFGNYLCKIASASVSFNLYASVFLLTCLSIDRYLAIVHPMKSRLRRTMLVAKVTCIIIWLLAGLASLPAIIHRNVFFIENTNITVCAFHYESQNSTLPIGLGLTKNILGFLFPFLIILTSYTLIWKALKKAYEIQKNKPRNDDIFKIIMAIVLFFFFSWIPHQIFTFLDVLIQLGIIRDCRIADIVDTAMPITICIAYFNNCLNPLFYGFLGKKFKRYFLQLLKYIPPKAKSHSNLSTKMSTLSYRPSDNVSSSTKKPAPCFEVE
Procedure: (§6) The antagonistic activities toward BDKRB1 and AGTR1 were assayed with a BDKRB1 calcium flux assay and an AGTR1 calcium flux assay (Discoverx Inc.), respectively.
(§7) For antagonist determination, cells were pre-incubated with sample followed by agonist challenge at the EC80 concentration. Intermediate dilution of sample stocks was performed to generate 3× sample in assay buffer. After dye loading, cells were removed from the incubator and 10 μL 3× sample was added. Cells were incubated for 30 minutes at room temperature in the dark to equilibrate plate temperature. […] Compound antagonistic activity was measured on a FLIPR Tetra (MDS), and calcium mobilization was monitored for 2 minutes and 10 μL EC80 agonist in HBSS/20 mM Hepes was added to the cells 5 seconds into the assay.
(§8) For antagonist assays, percentage inhibition is calculated using the following formula: % Inhibition=100%×(1−(mean RFU of test sample−mean RFU of vehicle control)/(mean RFU of EC80 control−mean RFU of vehicle control)).

CLR/RAMP1 receptor [3] = biological target: T3, CLR/RAMP1 receptor (Homo sapiens, UniProt O60894+Q16602); assay: CLR/RAMP1 cAMP receptor-activation assay (agonist mode); type: cell-based; settings: for CLR/RAMP1 Max Activity % of positive control: agonist mode, positive control β-CGRP;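 on all read-outs here: Dose–response over 10 threefold dilutions from 1.0 µM, run in duplicate, luminescent cAMP detection (RLU), activity scaled between vehicle control (0%) and maximal control (100%)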
T3 sequence (Q16602 23-461): as the sequence (Q16602 23-461) above
T3 sequence (O60894 27-148): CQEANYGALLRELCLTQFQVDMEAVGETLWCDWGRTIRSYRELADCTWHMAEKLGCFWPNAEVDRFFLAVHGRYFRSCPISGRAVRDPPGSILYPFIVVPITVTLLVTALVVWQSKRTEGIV
Procedure: as §1, §2
(§9) For the analysis of Gs-coupled CAMP production, cAMP Hunter cell lines were expanded from freezer stocks, and cells were seeded in a total volume of 20 μL into white walled, 384-well microplates and incubated at 37 C for the appropriate time prior to testing. The CAMP modulation was determined using the DiscoverX HitHunter CAMP XS+ assay. For agonistic activity determination, cells were incubated with sample to induce response. Media was aspirated from cells and replaced with 15 μL 2:1 HBSS/10 mM Hepes: CAMP XS+Ab reagent. […] For Gs-coupled agonistic assays, percentage activity is calculated using the following formula: % Activity=100%×(mean RLU of test sample−mean RLU of vehicle control)/(mean RLU of MAX control−mean RLU of vehicle control).

[4] = biological target: T4, bradykinin receptor 1 (BDKRB1) (Homo sapiens, UniProt P46663); assay: BDKRB1 calcium flux assay, antagonist mode; type: cell-based; settings: IC50 column pair
T4 sequence (P46663 1-353): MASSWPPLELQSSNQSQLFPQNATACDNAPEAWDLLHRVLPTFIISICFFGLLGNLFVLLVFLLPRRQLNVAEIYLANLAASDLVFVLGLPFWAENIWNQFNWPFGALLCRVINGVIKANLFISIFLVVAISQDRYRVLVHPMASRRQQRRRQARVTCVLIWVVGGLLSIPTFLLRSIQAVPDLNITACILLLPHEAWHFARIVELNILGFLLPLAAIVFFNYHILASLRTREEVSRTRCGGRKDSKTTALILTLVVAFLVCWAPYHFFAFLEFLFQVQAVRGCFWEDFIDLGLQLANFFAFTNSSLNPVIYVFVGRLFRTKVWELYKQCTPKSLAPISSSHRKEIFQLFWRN
Procedure: as §6, §7, §8

CLR/RAMP2 receptor [5] = biological target: T1, CLR/RAMP2 receptor; assay: CLR/RAMP2 arrestin assay, antagonist mode (ADM-stimulated); type: cell-based
Procedure: A cell line carrying the recombinant CLR/RAMP1, CLR/RAMP2, or a CLR/RAMP3 receptor was employed in the assay. Peptide agonist activities were tested, in duplicate, at 10 different concentrations, starting with 1.0 μM and serially diluted 3-fold, in DMSO. […] The CLR/RAMP1 CAMP, CLR/RAMP2 arrestin, and CLR/RAMP3 CAMP assays (DiscoveRx, Fremont, Calif.) were used.
For the analysis of antagonistic activity, synthetic analogs were pre-incubated with the cells before adding the reference ligand at its EC80. […] For antagonistic activity determination, cells were pre-incubated with antagonist followed by agonist challenge at the EC80 concentration. […] Then, 5 μL of 6× EC80 agonist in assay buffer was added to the cells and incubated at 37 C or room temperature for 90 or 180 minutes.
The microplates were read following signal generation with a PerkinElmer Envision™ instrument for chemiluminescent signal detection.
% Activity=100%×(mean RLU of test sample−mean RLU of vehicle control)/(mean MAX control ligand−mean RLU of vehicle control). For antagonistic activity assays, percentage inhibition was calculated using the following formula: % Inhibition=100%×(1−(mean RLU of test sample−mean RLU of vehicle control)/(mean RLU of EC80 control−mean RLU of vehicle control)).

CLR/RAMP3 receptor [6] = biological target: T5, CLR/RAMP3 receptor (Homo sapiens, UniProt O60896+Q16602); assay: CLR/RAMP3 cAMP assay, antagonist mode; type: cell-based
T5 sequence (Q16602 23-461): as the sequence (Q16602 23-461) above
T5 sequence (O60896 24-148): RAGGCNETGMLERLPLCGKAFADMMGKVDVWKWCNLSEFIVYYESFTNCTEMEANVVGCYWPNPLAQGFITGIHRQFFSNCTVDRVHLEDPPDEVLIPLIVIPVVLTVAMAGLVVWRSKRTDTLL
Procedure: (§10) A cell line carrying the recombinant CLR/RAMP1, CLR/RAMP2, or a CLR/RAMP3 receptor was employed in the assay. […] The CLR/RAMP1 CAMP, CLR/RAMP2 arrestin, and CLR/RAMP3 CAMP assays (DiscoveRx, Fremont, Calif.) were used.
(§11) For the analysis of antagonistic activity, synthetic analogs were pre-incubated with the cells before adding the reference ligand at its EC80. […] For the determination of antagonistic activity, cells were pre-incubated with sample followed by agonist challenge at the EC80 concentration. […] After appropriate compound incubation, assay signal was generated through incubation with 20 μL cAMP XS+ED/CL lysis cocktail for one hour followed by incubation with 20 μL cAMP XS+EA reagent for three hours at room temperature. Microplates were read following signal generation with a PerkinElmer Envision™ instrument for chemiluminescent signal detection.
(§12) For the antagonistic activity assay, percentage inhibition is calculated using the following formula: % Inhibition=100%×(1−(mean RLU of test sample−mean RLU of vehicle control)/(mean RLU of EC80 control−mean RLU of vehicle control)).

CLR/RAMP1 receptor [7] = biological target: T3, CLR/RAMP1 receptor; assay: CLR/RAMP1 cAMP assay, antagonist mode (CGRP-stimulated); type: cell-based; settings: for CLR/RAMP1 Max Activity % of positive control (antagonist): antagonist mode; for receptor selectivity of antagonists, in words: CLR/RAMP1 versus CLR/RAMP2
Procedure: as §10, §11, §12

[8] = biological target: somatostatin receptor SSTR2 (Homo sapiens, UniProt P30874); settings: arrestin assay
somatostatin receptor SSTR2, sequence (P30874 whole entry): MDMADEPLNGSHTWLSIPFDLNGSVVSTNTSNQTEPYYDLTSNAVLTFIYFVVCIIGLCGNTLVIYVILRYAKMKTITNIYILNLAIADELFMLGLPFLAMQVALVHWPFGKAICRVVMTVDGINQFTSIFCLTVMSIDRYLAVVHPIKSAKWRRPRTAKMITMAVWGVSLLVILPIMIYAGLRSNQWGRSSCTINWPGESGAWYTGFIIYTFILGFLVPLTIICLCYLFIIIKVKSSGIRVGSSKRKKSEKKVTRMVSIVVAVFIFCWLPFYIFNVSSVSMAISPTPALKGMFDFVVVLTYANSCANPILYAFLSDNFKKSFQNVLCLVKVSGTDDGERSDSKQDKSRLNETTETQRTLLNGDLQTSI
Procedure: (§13) The agonistic activities toward SSTR2, NTSR1, and AGTRL1 were assayed with an SSTR2 arrestin assay, an NTSR1 calcium flux assay, and an AGTRL1 CAMP assay (Discoverx Inc.), respectively.
as §3, §4, §5

apelin receptor AGTRL1 = biological target: T6, apelin receptor AGTRL1 (Homo sapiens, UniProt P35414); assay: AGTRL1 cAMP assay; type: cell-based
T6 sequence (P35414 1-380): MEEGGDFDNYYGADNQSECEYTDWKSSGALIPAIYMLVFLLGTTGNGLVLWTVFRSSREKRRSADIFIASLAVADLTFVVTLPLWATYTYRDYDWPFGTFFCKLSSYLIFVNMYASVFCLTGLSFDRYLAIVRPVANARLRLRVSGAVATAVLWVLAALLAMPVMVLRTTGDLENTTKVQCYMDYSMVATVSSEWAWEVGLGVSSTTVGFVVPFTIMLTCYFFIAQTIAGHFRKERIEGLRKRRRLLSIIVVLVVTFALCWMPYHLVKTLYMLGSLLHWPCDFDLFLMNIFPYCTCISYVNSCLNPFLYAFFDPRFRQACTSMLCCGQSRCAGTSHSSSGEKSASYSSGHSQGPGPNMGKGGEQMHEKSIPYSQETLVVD
Procedure: as §13, §9

[9] = biological target: neurotensin receptor 1 (NTSR1) (Homo sapiens, UniProt P30989); assay: NTSR1 calcium flux assay; type: cell-based
neurotensin receptor 1 (NTSR1), sequence (P30989 whole entry): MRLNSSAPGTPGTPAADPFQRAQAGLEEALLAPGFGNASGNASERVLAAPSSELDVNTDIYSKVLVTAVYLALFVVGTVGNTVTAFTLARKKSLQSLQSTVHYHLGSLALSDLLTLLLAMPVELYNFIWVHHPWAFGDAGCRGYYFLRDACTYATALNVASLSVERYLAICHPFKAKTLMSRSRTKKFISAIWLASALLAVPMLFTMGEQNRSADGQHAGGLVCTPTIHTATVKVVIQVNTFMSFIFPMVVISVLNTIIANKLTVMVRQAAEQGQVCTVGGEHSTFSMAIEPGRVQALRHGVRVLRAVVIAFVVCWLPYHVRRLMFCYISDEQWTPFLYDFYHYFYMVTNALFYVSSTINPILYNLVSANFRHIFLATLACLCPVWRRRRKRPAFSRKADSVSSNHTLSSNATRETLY
Procedure: The agonistic activities toward SSTR2, NTSR1, and AGTRL1 were assayed with an SSTR2 arrestin assay, an NTSR1 calcium flux assay, and an AGTRL1 CAMP assay (Discoverx Inc.), respectively. The antagonistic activities toward BDKRB1 and AGTR1 were assayed with a BDKRB1 calcium flux assay and an AGTR1 calcium flux assay (Discoverx Inc.), respectively.
For the analysis of calcium flux, cell lines were expanded from freezer stocks and seeded in a total volume of 20 μL into black-walled, clear-bottom, Poly-D-lysine coated 384-well microplates and incubated at 37 C for the appropriate time prior to testing. […] Compound agonist activity was measured on a FLIPR Tetra (MDS), and calcium mobilization was monitored for 2 minutes and 10 μL 4× sample in HBSS/20 mM Hepes was added to the cells 5 seconds into the assay.
The compound activity was analyzed using a CBIS data analysis suite (ChemInnovation, CA), and percentage activity is calculated using the following formula: % Activity=100%×(mean RFU of test sample−mean RFU of vehicle control)/(mean MAX RFU control ligand−mean RFU of vehicle control). For antagonist assays, percentage inhibition is calculated using the following formula: % Inhibition=100%×(1−(mean RFU of test sample−mean RFU of vehicle control)/(mean RFU of EC80 control−mean RFU of vehicle control)).

CLR/RAMP3 receptor [10] = biological target: T5, CLR/RAMP3 receptor; assay: CLR/RAMP3 cAMP receptor-activation assay (agonist mode); type: cell-based; settings: for CLR/RAMP3 Max Activity % of positive control: agonist mode; for EC50: CHO-K1 cells stably expressing CLR/RAMP3, cAMP assay
Procedure: as §1, §2, §9

Compound: Sar-RVYVHPA-miniPEG-K(PAL)GCRFGTCTVQKLAHQIYQFTDKDVAPRSKISPQGY-NH2 [SEQ ID NO: 234]
- CLR/RAMP2 Max Activity % of positive control (CLR/RAMP2 receptor [1]): 86 % of positive control
- AGTR1 Max Activity (IC50 column pair) [2]: 104 % of positive controls
- CLR/RAMP1 Max Activity % of positive control (CLR/RAMP1 receptor [3]): 132 % of positive control

Compound: Ace-KRPPGFS-DβNal-I-miniPEG-K(PAL)GCRFGTCTVQKLAHQIYQFTDKDVAPRSKISPQGY-NH2 [SEQ ID NO: 231]
- CLR/RAMP2 Max Activity % of positive control (CLR/RAMP2 receptor [1]): 46 % of positive control
- BDKRB1 Max Activity [4]: 109 % of positive controls
- CLR/RAMP1 Max Activity % of positive control (CLR/RAMP1 receptor [3]): 115 % of positive control

Compound: Pal-KVQKLAHQSAPVDPSSPHSY-NH2 [SEQ ID NO: 124]
- CLR/RAMP2 Max Activity % of positive control (antagonist) (CLR/RAMP2 receptor [5]): 103 % of positive control
- CLR/RAMP3 Max Activity % of positive control (antagonist) (CLR/RAMP3 receptor [6]): 102 % of positive control
- CLR/RAMP1 Max Activity % of positive control (antagonist) (CLR/RAMP1 receptor [7]): 95 % of positive control

Compound: CSCC[C@H](NC(=O)[C@H](C)NC(=O)[C@@H]1CCCN1C(=O)[C@H](CC(N)=O)NC(=O)[C@H](CO)NC(=O)[C@H](CC(N)=O)NC(=O)[C@H](C)NC(=O)[C@@H](N)CO)C(=O)N[C@@H](C)C(=O)N1CCC[C@H]1C(=O)N[C@@H](CCCNC(=N)N)C(=O)N[C@@H](CCC(=O)O)C(=O)N[C@@H](CCCNC(=N)N)C(=O)N[C@@H](CCCCN)C(=O)N[C@@H](C)C(=O)NCC(=O)N[C@H]1CSSC[C@@H](C(=O)O)NC(=O)[C@H](CO)NC(=O)[C@H]([C@@H](C)O)NC(=O)[C@H](Cc2ccccc2)NC(=O)[C@H]([C@@H](C)O)NC(=O)[C@H](CCCCN)NC(=O)[C@H](Cc2c[nH]c3ccccc23)NC(=O)[C@H](Cc2ccccc2)NC(=O)[C@H](Cc2ccccc2)NC(=O)[C@H](CC(N)=O)NC(=O)[C@H](CCCCN)NC1=O [Somatostatin 28]
- SSTR2 Max Activity [8]: 102 % of positive controls

Compound: (Glp)RPRLSHKGP(Nle)PF-miniPEG-K(PAL)GCRFGTCTVQKLAHQIYQFTDKDVAPRSKISPQGY-NH2 [SEQ ID NO: 228]
- AGTRL1 Max Activity (apelin receptor AGTRL1): 97 % of positive controls
- CLR/RAMP2 Max Activity % of positive control (CLR/RAMP2 receptor [1]): 74 % of positive control
- CLR/RAMP1 Max Activity % of positive control (CLR/RAMP1 receptor [3]): 130 % of positive control

Compound: KKPYIL [[Lys 8,9] Neurotensin, reference compound]
- NTSR1 Max Activity [9]: 100 % of positive controls

Compound: miniPEG-K(PAL)GCRFGTCTVQKLAHQIYQFTDKDVAPRSKISPQGY-NH2 [SEQ ID NO: 101]
- receptor selectivity of agonists, in words (CLR/RAMP2 receptor [1]; CLR/RAMP2 versus CLR/RAMP1): CLR/RAMP2-selective
- CLR/RAMP2 Max Activity % of positive control (CLR/RAMP2 receptor [1]): 74 % of positive control
- CLR/RAMP3 Max Activity % of positive control (CLR/RAMP3 receptor [10]): 129 % of positive control
- CLR/RAMP1 Max Activity % of positive control (CLR/RAMP1 receptor [3]): 56 % of positive control

Compound: (G1p)RPRLSHKGPMPF [Apelin 13, reference compound]
- AGTRL1 Max Activity (apelin receptor AGTRL1): 100 % of positive controls

Compound: miniPEG-K(PAL)GCRFGTCTVQKLAHQIYQFTDKDKDNVAPRSKISPQGY-NH2 [SEQ ID NO: 69]
- CLR/RAMP2 Max Activity % of positive control (CLR/RAMP2 receptor [1]): 147 % of positive control
- CLR/RAMP3 Max Activity % of positive control (CLR/RAMP3 receptor [10]): 127 % of positive control
- CLR/RAMP1 Max Activity % of positive control (CLR/RAMP1 receptor [3]): 70 % of positive control

Compound: Pal-KVQKLNFVPTNVGSKAF-NH2 [SEQ ID NO: 142]
- CLR/RAMP2 Max Activity % of positive control (antagonist) (CLR/RAMP2 receptor [5]): 80 % of positive control
- CLR/RAMP1 Max Activity % of positive control (antagonist) (CLR/RAMP1 receptor [7]): 100 % of positive control

Compound: Ace-YGGFLRRIRPKLK-miniPEG-K(Pal)VQKLSAPVDPSSPHSY-NH2 [SEQ ID NO: 146]
- CLR/RAMP2 Max Activity % of positive control (antagonist) (CLR/RAMP2 receptor [5]): 98 % of positive control
- receptor selectivity of antagonists, in words (CLR/RAMP1 receptor [7]): CLR/RAMP1-selective
- CLR/RAMP1 Max Activity % of positive control (antagonist) (CLR/RAMP1 receptor [7]): 102 % of positive control

Compound: Pyr(glu)-LYENKPRRPYIL-miniPEG-K(Pal)VQKLSAPVDPSSPHSY-NH2 [SEQ ID NO: 224]
- CLR/RAMP2 Max Activity % of positive control (antagonist) (CLR/RAMP2 receptor [5]): 100 % of positive control
- NTSR1 Max Activity [9]: 57 % of positive controls
- CLR/RAMP1 Max Activity % of positive control (antagonist) (CLR/RAMP1 receptor [7]): 99 % of positive control

Compound: miniPEG-K(PAL)GCRFGTCTVQKLAHQIYQFTDKDSAPVDPSSPHSY-NH2 [SEQ ID NO: 48]
- EC50 (CLR/RAMP2 receptor [1]): 0.2 nM
- CLR/RAMP2 Max Activity % of positive control (CLR/RAMP2 receptor [1]): 77 % of positive control
- EC50 (CLR/RAMP3 receptor [10]): 0.07 nM
- CLR/RAMP3 Max Activity % of positive control (CLR/RAMP3 receptor [10]): 141 % of positive control
- EC50 (CLR/RAMP1 receptor [3]; 1321N1 cells stably expressing CLR/RAMP1, cAMP assay): 0.3 nM
- CLR/RAMP1 Max Activity % of positive control (CLR/RAMP1 receptor [3]): 78 % of positive control

Compound: Ace-YNWNSFGLRF-miniPEG-K(PAL)VQKLAHQIYQFTDKDVAPRSKISPQGY-NH2 [SEQ ID NO: 148]
- CLR/RAMP2 Max Activity % of positive control (antagonist) (CLR/RAMP2 receptor [5]): 97 % of positive control
- receptor selectivity of antagonists, in words (CLR/RAMP1 receptor [7]): pan-specific
- CLR/RAMP1 Max Activity % of positive control (antagonist) (CLR/RAMP1 receptor [7]): 100 % of positive control

Compound: olcegepant [BIBN4096, reference compound]
- CLR/RAMP2 Max Activity % of positive control (CLR/RAMP2 receptor [1]): 0 % of positive control
- CLR/RAMP2 Max Activity % of positive control (antagonist) (CLR/RAMP2 receptor [5]): 0 % of positive control
- CLR/RAMP1 Max Activity % of positive control (antagonist) (CLR/RAMP1 receptor [7]): 105 % of positive control
- CLR/RAMP1 Max Activity % of positive control (CLR/RAMP1 receptor [3]): 105 % of positive control

Compound: PEG20,000-K[PAL]VQKLAHQIYQFTDKDSAPVDPSSPHSY-NH2 [SEQ ID NO: 190]
- CLR/RAMP2 Max Activity % of positive control (antagonist) (CLR/RAMP2 receptor [5]): 51 % of positive control
- CLR/RAMP1 Max Activity % of positive control (antagonist) (CLR/RAMP1 receptor [7]): 104 % of positive control

Compound: miniPEG-K(PAL)GCRFGTCTVQKLAHQIYQFTDKDKDNSAPVDPSSPHSY-NH2 [SEQ ID NO: 28]
- EC50 (CLR/RAMP2 receptor [1]): 0.5 nM
- CLR/RAMP2 Max Activity % of positive control (CLR/RAMP2 receptor [1]): 143 % of positive control
- EC50 (CLR/RAMP3 receptor [10]): 0.06 nM
- CLR/RAMP3 Max Activity % of positive control (CLR/RAMP3 receptor [10]): 117 % of positive control
- CLR/RAMP1 Max Activity % of positive control (CLR/RAMP1 receptor [3]): 54 % of positive control

Compound: PEG5000-K[PAL]VQKLAHQIYQFTDKDSAPVDPSSPHSY-NH2 [SEQ ID NO: 192]
- CLR/RAMP2 Max Activity % of positive control (antagonist) (CLR/RAMP2 receptor [5]): 104 % of positive control
- CLR/RAMP1 Max Activity % of positive control (antagonist) (CLR/RAMP1 receptor [7]): 101 % of positive control

Compound: PEG2000-K[PAL]VQKLAHQIYQFTDKDSAPVDPSSPHSY-NH2 [SEQ ID NO: 191]
- CLR/RAMP2 Max Activity % of positive control (antagonist) (CLR/RAMP2 receptor [5]): 101 % of positive control
- CLR/RAMP1 Max Activity % of positive control (antagonist) (CLR/RAMP1 receptor [7]): 98 % of positive control

From US20250154219A1, “PEPTIDE ANALOGS” (Adepthera LLC, priority 2017, published 2025)
